Source: patent publication US11434490B2, “Fluorogen-binding RNA aptamers” (CENTRE NATIONAL DE LA RECHERCHE SCIENTIFIQUE, priority 2017, dated 2022)
Several values for one entry are separate records, joined by “and”; a condition that tells them apart may be missing. Identical values can stand only once. Entries after “also recorded” stand apart in the source; their conditions may differ.

B1: Mango II - A22U: Mango-II point mutant; SEQ ID NO: 6903 / 6905 (nucleic acid)
chain 1: GCGUACGAAGGAGAGGAGAGGUAGAGGAGAGUACGC
chain 2: GGCACGUACGAAGGAGAGGAGAGGUAGAGGAGAGUACGUGC
modifications: chemistry not given here

Key:
[1] = Fluorescence titration, binding affinity for TO1-Biotin; details: for Kd: ligand TO1-B (TO1-Biotin)
From the text: (§1) FIG. 2|RNA Mango I, II, III and IV core sequences and their properties. (a) Color coded alignment of RNA Mango I, II, III and IV. G residues in yellow are protected from DMS cleavage (data from panel d) when folded in the presence of fluorophore. Quadruplex stacks and their associated propeller sequences are numbered 1 through 4. The GAAA isolation motif of Mango I, together with two adenines essential for binding, are shown in green and red respectively. Purple shading represents a flanking stem region common for all four Mango aptamers. Schematic: A tertiary structure schematic of Mango I, showing tier 1, 2 and 3 of its quadruplex structure (T1, T2 and T3) and color-coded as in (a). […] Bottom: Top view of the Mango I core (PBD ID: 5V3F), showing the T3 tier of the quadruplex and relevant propeller residues, color coding matches the schematic and panel a. […] KD values are shown next to each titration. (c) Same as for panel b but using 20 nM TO3-Biotin. Data for panels b and c have been normalized such that Mango I has a maximum fluorescence of 1. Error bars are standard deviation of three replicates. (d) DMS chemical protection patterns for the four Mango aptamers. 3′ end-labelled RNA (terminal ^32pCp shown as a black asterisk) was subjected to DMS chemical modification followed by reduction by NaBH4 and aniline cleavage as described in the methods. […] Legend: T1—denatured T1 ladder; OH—partial alkaline hydrolysis ladder; (−) DMS—denatured reaction with ddH2O added in place of DMS; 80° C.
(§2) Fluorescence data was gathered using a Varian Cary Eclipse Spectrophotometer unless otherwise stated. […] Fluorescence was measured at the maximum excitation and emission wavelengths of each complex (FIG. 13).
Where F([RNA]) is the fluorescence as a function of RNA concentration [RNA], Fmax is the maximal fluorescence of the bound complex and Funbound the fluorescence of the unbound fluorophore. When the fluorescence of Funbound was undetectable, it was set to zero.
(§3) Fluorescence readings were recorded using a Varian Cary Eclipse Spectrophotometer set to measure at the maximum excitation and emission wavelengths of the Mango II aptamer dye complex. Fluorescence titrations were performed in Mango selection buffer (WB: 140 mM KCl, 1 mM MgCl2, 10 mM NaH2PO4 pH 7.2, 0.05% Tween-20).

[2] = Salt dependence of Mango/TO1-Biotin fluorescence: Mg2+ titration; details: in the presence of potassium; Mg2+ 256 mM
Description: (§4) FIG. 10|Salt dependence of new Mango variants. Dependence of fluorescence of each Mango for (a) K^+, (b) Na^+ in place of K^+, and (c) Mg^2+ ions in a buffer containing 140 mM K^+. […] 10 mM Tris buffer (pH 7.2) was used in place of phosphate of the WB buffer to avoid monovalent counter ions. Color-coding is as follows: Black—Mango I, Blue—Mango II, Green—Mango III, Orange—Mango IV. Hill coefficients are fitted to dark points. Points in lighter shade have been excluded from the fit. Error bars are standard deviations of three replicates.

[3] = Fluorescence titration, binding affinity for TO3-Biotin; details: ligand TO3-B (TO3-Biotin)
From the text: as §1, §2
Or to the following equation for TO3-Biotin and NMM experiments: F([RNA])=Fmax[RNA]/(KD+[RNA])+Funbound (Eq. 2) Fmax was determined using Eq. 1 or Eq. 2 as appropriate. Temperature Dependent Fluorescence and UV Melting Curves
as §3

[4] = Brightness and photophysics of Mango fluorophore complexes; type: physicochemical
From the text: as §1
FIG. 13|Photophysics: excitation/emission. (a) Excitation (dark curve) and emission (light curve) spectra of each Mango. All Mangos have Δex max=510 nm and Δem max=535 nm. Color-coding is as follows: Black—Mango I, Blue—Mango II, Green—Mango III, Red—Mango IV.
as §2

[5] = Salt dependence of Mango/TO1-Biotin fluorescence: Na+ in place of K+; type: binding
Description: as §4

[6] = Formaldehyde resistance assay; type: physicochemical; details: in vitro, TO1-Biotin
Description: FIG. 15|Effect of formaldehyde on Mango fluorescence. […] In (b) RNA is incubated with the corresponding amounts of formaldehyde first for one hour, then TO1-Biotin is added. Data for each panel is normalized to RFU at the 0% formaldehyde, 0 min point.
RNA Mango aptamers were incubated with TO1-Biotin in WB buffer for at least one hour until equilibrium fluorescence was reached. […] Fluorescence was measured as a kinetic run at a rate of 2 readings per minute using a Varian Cary Eclipse Fluorescence Spectrophotometer, ex/em=510±2.5/535±5 nm.

[7] = Fluorescence titration, binding affinity for TO1-OAc; details: ligand TO1-OAc
From the text: We determined the affinity and fluorescence enhancement of four compounds: TO1-OAc (TO1-acetate), TO1-ME (TO1-methylester), TO1-PA (TO1-propanylamide), TO1-PE (TO1-pentenoylester) (FIG. 42, Table 8 & 9). Binding affinity and fluorescence enhancement of TO1-OAc is drastically diminished, and nearly identical between the wild-type and A22U mutant. […] Further extension of the linker stabilizes the binding pocket by stacking on T3 but becomes sterically hindered by a bulky purine in position 22. The A22U mutation would limit steric clashes while preventing misfolding of the G-quadruplex core. Thus, the improved properties of the Mango-II A22U mutant may arise from improved packing of the linker of the fluorophore with an RNA with a homogeneous or predominant conformation.
as §3

[8] = Temperature dependent fluorescence and UV melting; type: physicochemical
Description: FIG. 11|Temperature-dependent fluorescent and UV absorbance spectroscopy of new Mango variants. Line plots of temperature-dependent spectroscopy for Mango I (data obtained from previous work)^1, Mango II, Mango III, and Mango IV. […] Starting at 90° C., temperature was ramped down at a rate of 1° C./min to 20° C. (darker shade) and returned to 90° C. at a rate of 1° C./min (lighter shade).
Temperature dependence measurements were started at 90° C. decreasing at a rate of 1° C./min until 20° C., then returned at 1° C./min until 90° C. was reached. […] Temperature dependence of fluorescence and absorbance were measured using a Varian Cary Eclipse Fluorescence Spectrophotometer at excitation and emission peaks and a Varian Cary 100 Bio UV-visible spectrophotometer monitoring at 260 nm.

[9] = Salt dependence of Mango/TO1-Biotin fluorescence: K+ titration; type: binding; details: 25 nM RNA, 50 nM TO1-Biotin, 10 mM Tris pH 7.2
Description: as §4

Row | Molecule | TO1-Biotin binding affinity (in words) [1] | Kd [1] [µM] | effect of high levels of Mg^2+ on fluorescence [2] | Kd [3] | quantum yield of the TO1-Biotin complex [4] | brightness of the TO1-Biotin bound complex ([4]; TO1-Biotin complex) | brighter than Mango-I ([4]; TO1-Biotin, FIG. 2b) [fold] | fluorescence in the presence of sodium ions [5] | Hill Coefficients Na^+ ([5]; Na+ in place of K+, 25 nM RNA, 50 nM TO1-Biotin) | resistance to formaldehyde [6] | Kd [7] [µM] | thermostability [8] | Kd [9] [mM] | Hill Coefficients K^+ ([9]; * estimated from initial rise of fluorescence)
1 | Mango-II: minimal construct engineered from isolate R2-1; SEQ ID NO: 6902 GCGUACGAAGGAGAGGAGAGGAAGAGGAGAGUACGC (chemistry not given here) | subnanomolar affinity | 0.0011 ± 0.0003 | significantly resistant | 0.0014 µM and ~0.0014 µM | 0.21 | 17,000 M^−1cm^−1 | 1.5 | did not fluoresce appreciably | 0.8 ± 0.1 | substantially resistant to formaldehyde; also recorded: remarkably formaldehyde resistant | 0.056 ± 0.002 | more thermostable than Mango-I | 39 ± 10 | 1.4 ± 0.2
2 | B1 | – | 0.0009 ± 0.0004 | – | 0.005 ± 0.0028 µM | – | – | – | – | – | – | 0.043 ± 0.003 | – | – | –
